Test results from patent US20240409585A1, “MACROCYCLIC IMMUNOMODULATORS” (priority 2021, published 2024).
Bridge positions count the residues as written; N and C are the ends. Square brackets hold non-standard residues; d marks the D form. Peptide text beside a SMILES is read from it. * marks the point of attachment. ξ: configuration not given here. Phe(4-CONH2) = NC(=O)c1ccc(C[C@H](N)C(=O)O)cc1; Phe(4-COOH) = N[C@@H](Cc1ccc(C(=O)O)cc1)C(=O)O; Bip = N[C@@H](Cc1ccc(-c2ccccc2)cc1)C(=O)O; Phe(3-Me) = Cc1cccc(C[C@H](N)C(=O)O)c1; Val(3-OH) = CC(C)(O)[C@H](N)C(=O)O; 4Pal = N[C@@H](Cc1ccncc1)C(=O)O; Cha = N[C@@H](CC1CCCCC1)C(=O)O; Thr(3ξ) = CC(O)[C@H](N)C(=O)O; Carboxymethyl = O=C(O)C*; NMeA = CN[C@@H](C)C(=O)O; Dab = NCC[C@H](N)C(=O)O

These compounds were tested against T1, PE-labeled human PD-L1-Ig binding to Jurkat cell line over-expressing human PD-1 (Jurkat-PD-1) (Homo sapiens, UniProt Q15116) (assay: Jurkat-PD-1 Cell Binding High-Content Screening Assay (CBA): Method 1). Conditions: Jurkat-hPD-1 cells, PE-labeled PD-L1-Ig 20 nM final; read-out: Jurkat HPDL1 PD1 IC50 (uM) (Method 1).
T1 construct: expressed in transfected cells; host or cells: Jurkat
T1 sequence (Q15116 25-288): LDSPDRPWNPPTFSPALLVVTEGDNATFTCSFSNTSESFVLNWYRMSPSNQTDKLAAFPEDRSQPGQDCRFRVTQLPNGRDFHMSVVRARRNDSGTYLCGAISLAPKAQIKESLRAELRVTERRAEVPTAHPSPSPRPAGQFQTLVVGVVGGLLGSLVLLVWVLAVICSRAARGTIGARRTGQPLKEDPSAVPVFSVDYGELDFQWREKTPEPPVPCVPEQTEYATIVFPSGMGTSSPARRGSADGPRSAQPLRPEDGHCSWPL

Row | IC50 | Structure (SMILES)
1 | 0.02 µM | Cc1cccc(C[C@@H]2NC(=O)[C@H](CC(=O)O)NC(=O)[C@H](Cc3ccc(OCC(=O)O)cc3)NC(=O)[C@H](Cc3ccncc3)NC(=O)CSC[C@@H](C(=O)N[C@@H](CO)C(N)=O)NC(=O)[C@H](CO)NC(=O)[C@H](C(C)(C)O)NC(=O)[C@H](CC3CCCCC3)NC(=O)[C@H](CCN)NC(=O)[C@@H](CC(C)C)NC(=O)[C@H](C)N(C)C(=O)[C@H](Cc3ccc(C(=O)O)cc3)NC(=O)[C@H](Cc3ccc(-c4ccccc4)cc3)NC(=O)[C@H](Cc3ccc(C(N)=O)cc3)NC2=O)c1 [Compound 2180] ({CH2CO}-[4Pal]Y(Carboxymethyl)D[Phe(3-Me)][Phe(4-CONH2)][Bip][Phe(4-COOH)][NMeA][dL][Dab][Cha][Val(3-OH)]SCS-NH2; thioether N-14)
2 | 0.05 µM | Cc1cccc(C[C@@H]2NC(=O)[C@H](CC(=O)O)NC(=O)[C@H](Cc3ccc(OCC(=O)O)cc3)NC(=O)[C@H](C(C)O)NC(=O)CSC[C@@H](C(=O)N[C@@H](CO)C(N)=O)NC(=O)[C@H](CO)NC(=O)[C@H](C(C)(C)O)NC(=O)[C@H](CC3CCCCC3)NC(=O)[C@H](CCN)NC(=O)[C@@H](CC(C)C)NC(=O)[C@H](C)N(C)C(=O)[C@H](Cc3ccc(C(=O)O)cc3)NC(=O)[C@H](Cc3ccc(-c4ccccc4)cc3)NC(=O)[C@H](Cc3ccc(C(N)=O)cc3)NC2=O)c1 (stereo partly drawn) [Compound 2181] ({CH2CO}-[Thr(3ξ)]Y(Carboxymethyl)D[Phe(3-Me)][Phe(4-CONH2)][Bip][Phe(4-COOH)][NMeA][dL][Dab][Cha][Val(3-OH)]SCS-NH2; thioether N-14)
3 | 0.09 µM | Cc1cccc(C[C@@H]2NC(=O)[C@H](CC(=O)O)NC(=O)[C@H](Cc3ccc(OCC(=O)O)cc3)NC(=O)[C@H](Cc3cnc[nH]3)NC(=O)CSC[C@@H](C(=O)N[C@H](C)C(N)=O)NC(=O)[C@H](CO)NC(=O)[C@H](C(C)(C)O)NC(=O)[C@H](CC3CCCCC3)NC(=O)[C@H](CCN)NC(=O)[C@@H](CC(C)C)NC(=O)[C@H](C)N(C)C(=O)[C@H](Cc3ccc(OCC(=O)O)cc3)NC(=O)[C@H](Cc3ccc(-c4ccccc4)cc3)NC(=O)[C@H](Cc3ccc(C(=O)O)cc3)NC2=O)c1 [Compound 2182] ({CH2CO}-HY(Carboxymethyl)D[Phe(3-Me)][Phe(4-COOH)][Bip]Y(Carboxymethyl)[NMeA][dL][Dab][Cha][Val(3-OH)]SC[dA]-NH2; thioether N-14)
4 | 0.11 µM | Cc1cccc(C[C@@H]2NC(=O)[C@H](CC(=O)O)NC(=O)[C@H](Cc3ccc(OCC(=O)O)cc3)NC(=O)[C@H](Cc3ccncc3)NC(=O)CSC[C@@H](C(=O)N[C@H](C)C(N)=O)NC(=O)[C@H](CO)NC(=O)[C@H](C(C)(C)O)NC(=O)[C@H](CC3CCCCC3)NC(=O)[C@H](CCN)NC(=O)[C@@H](CC(C)C)NC(=O)[C@H](C)N(C)C(=O)[C@H](Cc3ccc(OCC(=O)O)cc3)NC(=O)[C@H](Cc3ccc(-c4ccccc4)cc3)NC(=O)[C@H](Cc3ccc(C(=O)O)cc3)NC2=O)c1 [Compound 2183] ({CH2CO}-[4Pal]Y(Carboxymethyl)D[Phe(3-Me)][Phe(4-COOH)][Bip]Y(Carboxymethyl)[NMeA][dL][Dab][Cha][Val(3-OH)]SC[dA]-NH2; thioether N-14)
5 | 0.04 µM | Cc1cccc(C[C@@H]2NC(=O)[C@H](CC(=O)O)NC(=O)[C@H](Cc3ccc(C(=O)O)cc3)NC(=O)[C@H](Cc3ccncc3)NC(=O)CSC[C@@H](C(=O)N[C@@H](CCN)C(N)=O)NC(=O)[C@H](CO)NC(=O)[C@H](C(C)(C)O)NC(=O)[C@H](CC3CCCCC3)NC(=O)[C@H](CCN)NC(=O)[C@@H](CC(C)C)NC(=O)[C@H](C)N(C)C(=O)[C@H](Cc3ccc(C(=O)O)cc3)NC(=O)[C@H](Cc3ccc(-c4ccccc4)cc3)NC(=O)[C@H](Cc3ccc(OCC(=O)O)cc3)NC2=O)c1 [Compound 2184] ({CH2CO}-[4Pal][Phe(4-COOH)]D[Phe(3-Me)]Y(Carboxymethyl)[Bip][Phe(4-COOH)][NMeA][dL][Dab][Cha][Val(3-OH)]SC[Dab]-NH2; thioether N-14)
6 | 0.02 µM | Cc1cccc(C[C@@H]2NC(=O)[C@H](CC(=O)O)NC(=O)[C@H](Cc3ccc(OCC(=O)O)cc3)NC(=O)[C@H](Cc3ccncc3)NC(=O)CSC[C@@H](C(=O)N[C@@H](CCN)C(N)=O)NC(=O)[C@H](CCC(=O)O)NC(=O)[C@H](C(C)(C)O)NC(=O)[C@H](CC3CCCCC3)NC(=O)[C@H](CCN)NC(=O)[C@@H](CC(C)C)NC(=O)[C@H](C)N(C)C(=O)[C@H](Cc3ccc(OCC(=O)O)cc3)NC(=O)[C@H](Cc3ccc(-c4ccccc4)cc3)NC(=O)[C@H](Cc3ccc(OCC(=O)O)cc3)NC2=O)c1 [Compound 2188] ({CH2CO}-[4Pal]Y(Carboxymethyl)D[Phe(3-Me)]Y(Carboxymethyl)[Bip]Y(Carboxymethyl)[NMeA][dL][Dab][Cha][Val(3-OH)]EC[Dab]-NH2; thioether N-14)
7 | 0.03 µM | Cc1cccc(C[C@@H]2NC(=O)[C@H](CC(=O)O)NC(=O)[C@H](Cc3ccc(OCC(=O)O)cc3)NC(=O)[C@H](Cc3ccncc3)NC(=O)CSC[C@@H](C(=O)N[C@@H](CCN)C(N)=O)NC(=O)[C@H](CCC(=O)O)NC(=O)[C@H](C(C)(C)O)NC(=O)[C@H](CC3CCCCC3)NC(=O)[C@H](CCN)NC(=O)[C@@H](CC(C)C)NC(=O)[C@H](C)N(C)C(=O)[C@H](Cc3ccc(OCC(=O)O)cc3)NC(=O)[C@H](Cc3ccc(-c4ccccc4)cc3)NC(=O)[C@H](Cc3ccc(C(=O)O)cc3)NC2=O)c1 [Compound 2189] ({CH2CO}-[4Pal]Y(Carboxymethyl)D[Phe(3-Me)][Phe(4-COOH)][Bip]Y(Carboxymethyl)[NMeA][dL][Dab][Cha][Val(3-OH)]EC[Dab]-NH2; thioether N-14)
8 | 0.03 µM | Cc1cccc(C[C@@H]2NC(=O)[C@H](CC(=O)O)NC(=O)[C@H](Cc3ccc(OCC(=O)O)cc3)NC(=O)[C@H](Cc3ccncc3)NC(=O)CSC[C@@H](C(=O)N[C@@H](CCN)C(N)=O)NC(=O)[C@H](CC(=O)O)NC(=O)[C@H](C(C)(C)O)NC(=O)[C@H](CC3CCCCC3)NC(=O)[C@H](CCN)NC(=O)[C@@H](CC(C)C)NC(=O)[C@H](C)N(C)C(=O)[C@H](Cc3ccc(OCC(=O)O)cc3)NC(=O)[C@H](Cc3ccc(-c4ccccc4)cc3)NC(=O)[C@H](Cc3ccc(OCC(=O)O)cc3)NC2=O)c1 [Compound 2190] ({CH2CO}-[4Pal]Y(Carboxymethyl)D[Phe(3-Me)]Y(Carboxymethyl)[Bip]Y(Carboxymethyl)[NMeA][dL][Dab][Cha][Val(3-OH)]DC[Dab]-NH2; thioether N-14)
9 | 0.03 µM | Cc1cccc(C[C@@H]2NC(=O)[C@H](CC(=O)O)NC(=O)[C@H](Cc3ccc(OCC(=O)O)cc3)NC(=O)[C@H](Cc3ccncc3)NC(=O)CSC[C@@H](C(=O)N[C@@H](CCN)C(N)=O)NC(=O)[C@H](CC(N)=O)NC(=O)[C@H](C(C)(C)O)NC(=O)[C@H](CC3CCCCC3)NC(=O)[C@H](CCN)NC(=O)[C@@H](CC(C)C)NC(=O)[C@H](C)N(C)C(=O)[C@H](Cc3ccc(OCC(=O)O)cc3)NC(=O)[C@H](Cc3ccc(-c4ccccc4)cc3)NC(=O)[C@H](Cc3ccc(OCC(=O)O)cc3)NC2=O)c1 [Compound 2191] ({CH2CO}-[4Pal]Y(Carboxymethyl)D[Phe(3-Me)]Y(Carboxymethyl)[Bip]Y(Carboxymethyl)[NMeA][dL][Dab][Cha][Val(3-OH)]NC[Dab]-NH2; thioether N-14)
10 | 0.02 µM | Cc1cccc(C[C@@H]2NC(=O)[C@H](CC(=O)O)NC(=O)[C@H](Cc3ccc(OCC(=O)O)cc3)NC(=O)[C@H](Cc3ccncc3)NC(=O)CSC[C@@H](C(=O)N[C@@H](CCN)C(N)=O)NC(=O)[C@H](CCC(N)=O)NC(=O)[C@H](C(C)(C)O)NC(=O)[C@H](CC3CCCCC3)NC(=O)[C@H](CCN)NC(=O)[C@@H](CC(C)C)NC(=O)[C@H](C)N(C)C(=O)[C@H](Cc3ccc(OCC(=O)O)cc3)NC(=O)[C@H](Cc3ccc(-c4ccccc4)cc3)NC(=O)[C@H](Cc3ccc(OCC(=O)O)cc3)NC2=O)c1 [Compound 2192] ({CH2CO}-[4Pal]Y(Carboxymethyl)D[Phe(3-Me)]Y(Carboxymethyl)[Bip]Y(Carboxymethyl)[NMeA][dL][Dab][Cha][Val(3-OH)]QC[Dab]-NH2; thioether N-14)
11 | 0.01 µM | Cc1cccc(C[C@@H]2NC(=O)[C@H](CC(=O)O)NC(=O)[C@H](Cc3ccc(OCC(=O)O)cc3)NC(=O)[C@H](Cc3ccncc3)NC(=O)CSC[C@@H](C(=O)N[C@@H](CCN)C(N)=O)NC(=O)[C@H](CCC(=O)O)NC(=O)[C@H](C(C)C)NC(=O)[C@H](CC3CCCCC3)NC(=O)[C@H](CCN)NC(=O)[C@@H](CC(C)C)NC(=O)[C@H](C)N(C)C(=O)[C@H](Cc3ccc(OCC(=O)O)cc3)NC(=O)[C@H](Cc3ccc(-c4ccccc4)cc3)NC(=O)[C@H](Cc3ccc(C(=O)O)cc3)NC2=O)c1 [Compound 2193] ({CH2CO}-[4Pal]Y(Carboxymethyl)D[Phe(3-Me)][Phe(4-COOH)][Bip]Y(Carboxymethyl)[NMeA][dL][Dab][Cha]VEC[Dab]-NH2; thioether N-14)
12 | 0.26 µM | Cc1cccc(C[C@@H]2NC(=O)[C@H](CC(=O)O)NC(=O)[C@H](Cc3ccc(C(=O)O)cc3)NC(=O)[C@H](Cc3ccncc3)NC(=O)CSC[C@@H](C(=O)N[C@@H](CO)C(N)=O)NC(=O)[C@H](CCC(=O)O)NC(=O)[C@H](C(C)(C)O)NC(=O)[C@H](CC3CCCCC3)NC(=O)[C@H](CCN)NC(=O)[C@@H](CC(C)C)NC(=O)[C@H](C)N(C)C(=O)[C@H](Cc3ccc(OCC(=O)O)cc3)NC(=O)[C@H](Cc3ccc(-c4ccccc4)cc3)NC(=O)[C@H](Cc3ccc(OCC(=O)O)cc3)NC2=O)c1 [Compound 2194] ({CH2CO}-[4Pal][Phe(4-COOH)]D[Phe(3-Me)]Y(Carboxymethyl)[Bip]Y(Carboxymethyl)[NMeA][dL][Dab][Cha][Val(3-OH)]ECS-NH2; thioether N-14)
13 | 0.08 µM | Cc1cccc(C[C@@H]2NC(=O)[C@H](CC(=O)O)NC(=O)[C@H](Cc3ccc(C(=O)O)cc3)NC(=O)[C@H](Cc3ccncc3)NC(=O)CSC[C@@H](C(=O)N[C@@H](CO)C(N)=O)NC(=O)[C@H](CCC(=O)O)NC(=O)[C@H](C(C)(C)O)NC(=O)[C@H](CC3CCCCC3)NC(=O)[C@H](CCN)NC(=O)[C@@H](CC(C)C)NC(=O)[C@H](C)N(C)C(=O)[C@H](Cc3ccc(OCC(=O)O)cc3)NC(=O)[C@H](Cc3ccc(-c4ccccc4)cc3)NC(=O)[C@H](Cc3ccc(C(=O)O)cc3)NC2=O)c1 [Compound 2195] ({CH2CO}-[4Pal][Phe(4-COOH)]D[Phe(3-Me)][Phe(4-COOH)][Bip]Y(Carboxymethyl)[NMeA][dL][Dab][Cha][Val(3-OH)]ECS-NH2; thioether N-14)
